This passage reports Ratio, MIC and MBC results from ChEMBL document CHEMBL4813981, “Synthesis and in vitro antibacterial activity of new aminothiazole-oximepiperidone cephalosporins” (2021).

Assay [1] concerns Pseudomonas aeruginosa. The experiment in a line: Ratio of MBC to MIC for carbapenem-sensitive Pseudomonas aeruginosa 17-29 assessed as reduction in bacterial growth. Format: functional.
For assay [2], the system named is Klebsiella pneumoniae. As to the kind of experiment: Antibacterial activity against ESBLs positive Carbapenem-sensitive Klebsiella pneumoniae 17-2 assessed as reduction in bacterial growth in the presence of Avibactam. Format: functional.
Assay [3] concerns Pseudomonas aeruginosa. As to the kind of experiment: Ratio of MBC to MIC for carbapenem-sensitive Pseudomonas aeruginosa 17-29 assessed as reduction in bacterial growth in the presence of Avibactam. Format: functional.
Assay [4] deals with Klebsiella pneumoniae. As to the kind of experiment: Ratio of MBC to MIC for ESBLs positive Carbapenem-sensitive Klebsiella pneumoniae 17-6 assessed as reduction in bacterial growth in the presence of Avibactam. The class given is functional.
For assay [5], the system named is Klebsiella pneumoniae. The experiment in a line: Ratio of MBC to MIC for Klebsiella pneumoniae ATCC BAA-1705 assessed as reduction in bacterial growth in the presence of Avibactam. Format: functional.
Assay [6] has as its system Klebsiella aerogenes. As to the kind of experiment: Ratio of MBC to MIC for Enterobacter aerogenes 17-3 assessed as reduction in bacterial growth in the presence of Avibactam. The class given is functional.
The test system of assay [7] is Enterobacter cloacae. The experiment in a line: Antibacterial activity against Enterobacter cloacae 17-9 assessed as reduction in bacterial growth in the presence of Avibactam. Format: functional.
Assay [8] concerns Klebsiella aerogenes. The experiment in a line: Bactericidal activity against Enterobacter aerogenes 17-4 assessed as reduction in bacterial growth. Format: functional.
For assay [9], the system named is Escherichia coli. The experiment in a line: Ratio of MBC to MIC for ESBLs negative Carbapenem-sensitive Escherichia coli 17-20 assessed as reduction in bacterial growth. The class given is functional.
Assay [10] has as its system Klebsiella aerogenes. The experiment in a line: Ratio of MBC to MIC for Enterobacter aerogenes 17-4 assessed as reduction in bacterial growth in the presence of Avibactam. Format: functional.
Assay [11] relates to Enterobacter cloacae. As to the kind of experiment: Antibacterial activity against Enterobacter cloacae 17-4 assessed as reduction in bacterial growth in the presence of Avibactam. The class given is functional.
The test system of assay [12] is Enterobacter cloacae. As to the kind of experiment: Ratio of MBC to MIC for Enterobacter cloacae 17-9 assessed as reduction in bacterial growth in the presence of Avibactam. The class given is functional.
The test system of assay [13] is Pseudomonas aeruginosa. As to the kind of experiment: Ratio of MBC to MIC for carbapenem-sensitive Pseudomonas aeruginosa 17-7 assessed as reduction in bacterial growth in the presence of Avibactam. Format: functional.
Assay [14] relates to Escherichia coli. As to the kind of experiment: Ratio of MBC to MIC for Escherichia coli ATCC 25922 assessed as reduction in bacterial growth in the presence of Avibactam. Format: functional.
Assay [15] deals with Pseudomonas aeruginosa. The experiment in a line: Ratio of MBC to MIC for carbapenem-sensitive Pseudomonas aeruginosa 17-10 assessed as reduction in bacterial growth. Format: functional.
In assay [16] the test system is Klebsiella pneumoniae. As to the kind of experiment: Bactericidal activity against ESBLs negative Carbapenem-sensitive Klebsiella pneumoniae 17-17 assessed as reduction in bacterial growth. Format: functional.
In assay [17] the test system is Enterobacter cloacae. The experiment in a line: Antibacterial activity against Enterobacter cloacae 17-6 assessed as reduction in bacterial growth in the presence of Avibactam. The class given is functional.
The test system of assay [18] is Escherichia coli. The experiment in a line: Antibacterial activity against Escherichia coli 15-3 overexpressing extended spectrum beta-lactamases assessed as reduction in bacterial growth in the presence of Avibactam. The class given is functional.
For assay [19], the system named is Escherichia coli. The experiment in a line: Antibacterial activity against ESBLs positive Carbapenem-sensitive Escherichia coli 17-5 assessed as reduction in bacterial growth in the presence of Avibactam. Format: functional.
Assay [20] deals with Enterobacter cloacae. The experiment in a line: Antibacterial activity against Enterobacter cloacae 17-1 assessed as reduction in bacterial growth in the presence of Avibactam. The class given is functional.
The test system of assay [21] is Escherichia coli. The experiment in a line: Ratio of MBC to MIC for ESBLs negative carbapenem-negative Escherichia coli 17-7 assessed as reduction in bacterial growth in the presence of Avibactam. Format: functional.
For assay [22], the system named is Escherichia coli. The experiment in a line: Ratio of MBC to MIC for ESBLs negative carbapenem-negative Escherichia coli 17-9 assessed as reduction in bacterial growth in the presence of Avibactam. The class given is functional.
For assay [23], the system named is Pseudomonas aeruginosa. The experiment in a line: Ratio of MBC to MIC for carbapenem-sensitive Pseudomonas aeruginosa 17-9 assessed as reduction in bacterial growth. Format: functional.
Assay [24] has as its system Escherichia coli. As to the kind of experiment: Ratio of MBC to MIC for Escherichia coli ATCC 25922 assessed as reduction in bacterial growth. The class given is functional.
For assay [25], the system named is Klebsiella pneumoniae. The experiment in a line: Antibacterial activity against ESBLs positive Carbapenem-sensitive Klebsiella pneumoniae 17-5 assessed as reduction in bacterial growth in the presence of Avibactam. The class given is functional.
Assay [26] has as its system Escherichia coli. As to the kind of experiment: Antibacterial activity against ESBLs positive Carbapenem-sensitive Escherichia coli 17-8 assessed as reduction in bacterial growth in the presence of Avibactam. Format: functional.
Assay [27] deals with Pseudomonas aeruginosa. As to the kind of experiment: Antibacterial activity against Carbapenem- sensitive Pseudomonas aeruginosa 17-10 assessed as reduction in bacterial growth in the presence of Avibactam. The class given is functional.
In assay [28] the test system is Klebsiella aerogenes. The experiment in a line: Antibacterial activity against Enterobacter aerogenes 17-3 assessed as reduction in bacterial growth.
Assay [29] deals with Enterobacter cloacae. As to the kind of experiment: Antibacterial activity against Enterobacter cloacae 17-9 assessed as reduction in bacterial growth.
The subject of assay [30] is Escherichia coli. The experiment in a line: Ratio of MBC to MIC for ESBLs negative Carbapenem-sensitive Escherichia coli 17-9 assessed as reduction in bacterial growth. The class given is functional.
The test system of assay [31] is Pseudomonas aeruginosa. As to the kind of experiment: Ratio of MBC to MIC for carbapenem-sensitive Pseudomonas aeruginosa 17-10 assessed as reduction in bacterial growth in the presence of Avibactam. Format: functional.
Assay [32] relates to Klebsiella aerogenes. As to the kind of experiment: Antibacterial activity against Enterobacter aerogenes 15-4 assessed as reduction in bacterial growth in the presence of Avibactam. The class given is functional.
The subject of assay [33] is Escherichia coli. The experiment in a line: Antibacterial activity against ESBLs negative Carbapenem-sensitive Escherichia coli 17-4 assessed as reduction in bacterial growth in the presence of Avibactam. The class given is functional.
The subject of assay [34] is Escherichia coli. The experiment in a line: Antibacterial activity against ESBLs negative Carbapenem-sensitive Escherichia coli 17-9 assessed as reduction in bacterial growth in the presence of Avibactam. Format: functional.
Assay [35] deals with Escherichia coli. The experiment in a line: Antibacterial activity against ESBLs positive Carbapenem-sensitive Escherichia coli 17-3 assessed as reduction in bacterial growth in the presence of Avibactam. Format: functional.
Assay [36] concerns Klebsiella pneumoniae. The experiment in a line: Ratio of MBC to MIC for ESBLs negative Carbapenem-sensitive Klebsiella pneumoniae 17-17 assessed as reduction in bacterial growth in the presence of Avibactam. Format: functional.
The test system of assay [37] is Escherichia coli. As to the kind of experiment: Ratio of MBC to MIC for ESBLs positive Carbapenem-sensitive Escherichia coli 17-18 assessed as reduction in bacterial growth. The class given is functional.
Assay [38] concerns Enterobacter cloacae. As to the kind of experiment: Antibacterial activity against Enterobacter cloacae 17-3 assessed as reduction in bacterial growth in the presence of Avibactam. Format: functional.
Assay [39] relates to Klebsiella pneumoniae. As to the kind of experiment: Ratio of MBC to MIC for ESBLs negative Carbapenem-sensitive Klebsiella pneumoniae 17-17 assessed as reduction in bacterial growth. The class given is functional.
Assay [40] concerns Klebsiella pneumoniae. As to the kind of experiment: Ratio of MBC to MIC for ESBLs positive Carbapenem-sensitive Klebsiella pneumoniae 17-2 assessed as reduction in bacterial growth in the presence of Avibactam. The class given is functional.
Assay [41] relates to Escherichia coli. The experiment in a line: Ratio of MBC to MIC for Escherichia coli NCTC 13353 assessed as reduction in bacterial growth in the presence of Avibactam. Format: functional.
Assay [42] has as its system Klebsiella aerogenes. The experiment in a line: Bactericidal activity against Enterobacter aerogenes 17-3 assessed as reduction in bacterial growth. Format: functional.
In assay [43] the test system is Acinetobacter baumannii. The experiment in a line: Bactericidal activity against Carbapenem- resistant Acinetobacter baumannii 17-11 assessed as reduction in bacterial growth. Format: functional.
The test system of assay [44] is Pseudomonas aeruginosa. As to the kind of experiment: Antibacterial activity against Carbapenem- resistant Pseudomonas aeruginosa 17-1 assessed as reduction in bacterial growth.
The test system of assay [45] is Klebsiella aerogenes. As to the kind of experiment: Antibacterial activity against Enterobacter aerogenes 17-4 assessed as reduction in bacterial growth.
In assay [46] the test system is Enterobacter cloacae. The experiment in a line: Bactericidal activity against Enterobacter cloacae 17-3 assessed as reduction in bacterial growth. The class given is functional.

Values after ≈ are worked out from the molar mass of the structure shown.

Broadly, the MIC is the lowest concentration found to suppress growth. Usually MBC stands for the lowest tested concentration that kills the bacteria rather than only halting them.

As for `Nc1nc(/C(=N/OCc2cc(=O)c(O)cn2O)C(=O)N[C@@H]2C(=O)N3C(C(=O)O)=CCS[C@H]23)cs1`, the Ratio in assay [1] is reported as 4; in assay [3] it was 8; in assay [4], 2; in assay [5], 1; in assay [6] it was 1; in assay [9], above 8. Also, the Ratio was 1 in [10]; 1 in assay [12]; 1 in assay [13]; 2 in [14]; 4 in assay [15]; 2 in assay [21]. The Ratio in assay [22] is on record as 4; in [23], 4; in assay [24] it was above 16; in assay [30] it was 4; in assay [31] it was 2; in assay [36] it was 8. The Ratio came to 4 in [37], 2 in assay [39], 1 in assay [40] and 1 in [41]. Besides, the MIC was determined as 0.125 µg/mL in [2]; 2 µg/mL in assay [7]; 0.5 µg/mL in assay [11]; 1 µg/mL in assay [17]; 1 µg/mL in [18]; 1 µg/mL in assay [19]. Also, the MIC in assay [20] is 1 µg/mL; in assay [25] it was 1 µg/mL; in [26], 0.5 µg/mL; in assay [27] it was 2 µg/mL; in [28], 2 µg/mL (≈ 3.93 µM); in assay [29], 8 µg/mL (≈ 15.7 µM). The MIC in assay [32] was determined as 0.5 µg/mL; in assay [33], 0.125 µg/mL; in assay [34] it was 0.5 µg/mL; in assay [35], 0.125 µg/mL; in assay [38], 2 µg/mL. For the same molecule, the MBC in [8] was 16 µg/mL (≈ 31.5 µM); in assay [16], 0.25 µg/mL (≈ 0.492 µM).

For `CC(C)(O/N=C(\C(=O)N[C@@H]1C(=O)N2C(C(=O)[O-])=C(C[n+]3ccccc3)CS[C@H]12)c1csc(N)n1)C(=O)O` [CEFTAZIDIME], the MBC was 1 µg/mL (≈ 1.83 µM) in assay [42], above 64 µg/mL in assay [43] and above 16 µg/mL in assay [46]. Besides, the results for the MIC in assay [44] and in assay [45] were 32 µg/mL (≈ 58.5 µM) and 8 µg/mL (≈ 14.6 µM), respectively.
